Columns and labels:
15-PGDH/HPGD = 15-PGDH/HPGD (Homo sapiens (Human), UniProt P15428); experiment: hPGDH inhibitor screening biochemical assay; conditions: read-out: hPGDH: Average IC50
Method in brief: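 Ten-point dose-response inhibition of 15-PGDH measured by fluorescence (340/485 nm) after 10 min at room temperature with PGE2 (15 μM) and NAD+ (0.25 mM), following 10 min enzyme (10 nM)–compound pre-incubation at 37 °C. Buffer: 50 mM Tris-HCl pH 7.5, 0.01% Tween 20. Percent inhibition relative to 1% DMSO; four-parameter IC50.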

[1] = Liver microsome stability assay (RLM); format: in vitro ADME; conditions: rat liver microsomes
Protocol: (§1) A microsomal mixture (microsomes and Kphos buffer) was prepared at a concentration of 1.428 mg/mL in 2 mL tubes. To this microsomal mixture 1.6 μL (1 mM) of test compound and positive control were spiked; from this mixture, 70 μL was transferred to 96 well plate and pre-incubated at 37° C. for 5 min. After pre-incubation, the zero minute time point reaction was stopped using 100 μL of ice-cold acetonitrile containing internal standard and […] (3.33 mM in Kphos buffer) was added. The 45 minute time point reaction was initiated by addition of 30 μL of NADPH (3.33 mM in Kphos buffer) and incubated at 37° C. for 15 and 45 min. Reactions without NADPH and buffer controls (minus NADPH) at 0, 15, and 45 minutes were also incubated to rule out non-NADPH metabolism or chemical instability in the incubation buffer. Incubation reactions were stopped with 100 μL of ice-cold acetonitrile containing internal standard. The plates were centrifuged at 4000 RPM for 15 min and 100 μL aliquots were submitted for analysis by LC-MS/MS. (Verapamil in human liver microsomes (HLM) and rat liver microsomes (RLM) was used as positive controls. Imipramine in mouse liver microsomes (MLM) was used as a positive control.) Samples were monitored for parent compound disappearance in MRM mode (multiple reaction monitoring) using LC-MS/MS. The peak area ratios of analyte versus internal standard were used to calculate the % remaining at the end of 45 minutes in the presence of NADPH.

[2] = Liver microsome stability assay (MLM); format: in vitro ADME; conditions: mouse liver microsomes
Protocol: as §1

15-PGDH/HPGD, sequence (P15428 whole entry): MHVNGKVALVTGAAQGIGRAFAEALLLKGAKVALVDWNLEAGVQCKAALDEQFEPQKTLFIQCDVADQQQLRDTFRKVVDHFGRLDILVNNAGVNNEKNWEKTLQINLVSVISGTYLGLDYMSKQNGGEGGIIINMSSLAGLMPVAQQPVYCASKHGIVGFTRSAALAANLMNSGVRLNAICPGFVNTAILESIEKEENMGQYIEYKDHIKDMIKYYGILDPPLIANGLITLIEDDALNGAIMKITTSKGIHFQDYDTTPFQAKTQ

SMILES | IC50 (15-PGDH/HPGD) [nM] | RLM + NADPH (% remaining at 45 min) [1] [%] | MLM + NADPH (% remaining at 45 min) [2] [%]
COc1ccc(-n2c(C)nc3cc(C(=O)N4CCC(F)CC4)ccc32)cc1 [MF-DH-187] | < 100 | 17 | –
COc1ccc(-n2ccc3cc(C(=O)N4CCC(F)CC4)ccc32)cc1 [MF-DH-189] | < 100 | 23 | –
COc1ccc(-n2cc(C)c3cc(C(=O)N4CCC(F)CC4)ccc32)cc1 [MF-DH-190, (4-fluoropiperidin-1-yl)(1-(4-methoxyphenyl)-3-methyl-1H-indol-5-yl)methanone] | < 100 | 29 | –
CCc1nc2cc(C(=O)N3CCC(F)CC3)ccc2n1-c1ccc(OC)cc1 [MF-DH-193] | < 100 | 0 | –
CCC(CC)n1cnc2cc(C(=O)N3CCC(F)CC3)cnc21 [MF-DH-201] | ≥ 1000 | 48 | –
COc1ccc(-n2c(C)nc3cc(C(=O)N4CCCCC4)cnc32)cc1 [MF-DH-205] | < 100 | 78 | –
COc1ccc(-n2c(C)nc3cc(C(=O)N4CCCCC4)ccc32)cc1 [MF-DH-206] | < 100 | 9 | –
O=C(c1cnc2c(c1)ncn2-c1ccc(F)cc1)N1CCC(F)CC1 [MF-DH-214] | 100 to 1000 | 60 | –
O=C(c1cnc2c(c1)ncn2-c1ccc(F)cc1)N1CCCCC1 [MF-DH-215] | < 100 | 45 | –
O=C(c1cnc2c(c1)ncn2-c1ccc(F)c(F)c1)N1CCC(F)CC1 [MF-DH-216] | 100 to 1000 | 64 | –
O=C(c1cnc2c(c1)ncn2-c1ccc(F)c(F)c1)N1CCCCC1 [MF-DH-217] | < 100 | 34 | –
O=C(c1cnc2c(c1)ncn2-c1ccc(OC(F)(F)F)cc1)N1CCC(F)CC1 [MF-DH-218] | 100 to 1000 | 34 | –
O=C(c1cnc2c(c1)ncn2-c1ccc(OC(F)(F)F)cc1)N1CCCCC1 [MF-DH-219] | < 100 | 26 | –
O=C(c1cnc2c(c1)ncn2-c1ccc(OC(F)F)cc1)N1CCCCC1 [MF-DH-223] | < 100 | 74 | –
CCOc1ccc(-n2cnc3cc(C(=O)N4CCCCC4)cnc32)cc1 [MF-DH-225] | < 100 | 40 | –
O=C(c1cnc2c(c1)ncn2-c1cccc(OC(F)(F)F)c1)N1CCCCC1 [MF-DH-227] | 100 to 1000 | 48 | –
O=C(c1cnc2c(c1)ncn2-c1cccc(OC(F)F)c1)N1CCC(F)CC1 [MF-DH-228] | 100 to 1000 | 69 | –
O=C(c1cnc2c(c1)ncn2-c1cccc(OC(F)F)c1)N1CCCCC1 [MF-DH-229] | 100 to 1000 | 39 | –
Cc1nc(-c2cncc(-n3ccc4cc(C(=O)N5CCC(F)(F)CC5)cnc43)c2)no1 [MF-DH-470, (4,4-difluoropiperidin-1-yl)(1-(5-(5-methyl-1,2,4-oxadiazol-3-yl)pyridin-3-yl)-1H-pyrrolo[2,3-b]pyridin-5-yl)methanone] | < 100 | – | 74

SMILES | IC50 (15-PGDH/HPGD) [nM] | RLM + NADPH (% remaining at 45 min) [1] [%] | MLM + NADPH (% remaining at 45 min) [2] [%]
Cc1nc(-c2ccc(-n3ccc4cc(C(=O)N5CCC(F)(F)CC5)cnc43)cn2)no1 [MF-DH-471, (4,4-difluoropiperidin-1-yl)(1-(6-(5-methyl-1,2,4-oxadiazol-3-yl)pyridin-3-yl)-1H-pyrrolo[2,3-b]pyridin-5-yl)methanone] | < 100 | – | 99
O=C(c1cnc2c(ccn2-c2cncc(N3CCOC3=O)c2)c1)N1CCC(F)(F)CC1 [MF-DH-472] | < 100 | – | 83
NC(=O)c1cncc(-n2cc(Cl)c3cc(C(=O)N4CCC(F)(F)CC4)cnc32)c1 [MF-DH-482] | < 100 | – | 103
CCOC(=O)Nc1cncc(-n2ccc3cc(C(=O)N4CCC(F)(F)CC4)cnc32)c1 [MF-DH-485, ethyl (5-(5-(4,4-difluoropiperidine-1-carbonyl)-1H-pyrrolo[2,3-b]pyridin-1-yl)pyridin-3-yl)carbamate] | < 100 | – | 80
O=C(Nc1cc(C2CC2)[nH]n1)c1cccc(-n2ccc3cc(C(=O)N4CCC(F)(F)CC4)cnc32)c1 [MF-DH-498, N-(5-cyclopropyl-1H-pyrazol-3-yl)-3-(5-(4,4-difluoropiperidine-1-carbonyl)-1H-pyrrolo[2,3-b]pyridin-1-yl)benzamide] | < 100 | – | 0
O=C(Nc1ccn(C2CC2)n1)c1cccc(-n2ccc3cc(C(=O)N4CCC(F)(F)CC4)cnc32)c1 [MF-DH-499, N-(1-cyclopropyl-1H-pyrazol-3-yl)-3-(5-(4,4-difluoropiperidine-1-carbonyl)-1H-pyrrolo[2,3-b]pyridin-1-yl)benzamide] | < 100 | – | 15
O=C(Nc1ccn(C2CC2)n1)c1cncc(-n2ccc3cc(C(=O)N4CCC(F)(F)CC4)cnc32)c1 [MF-DH-500, N-(1-cyclopropyl-1H-pyrazol-3-yl)-5-(5-(4,4-difluoropiperidine-1-carbonyl)-1H-pyrrolo[2,3-b]pyridin-1-yl)nicotinamide] | < 100 | – | 60
O=C(O)c1cccc(-n2ccc3cc(C(=O)N4CCC(F)(F)CC4)cnc32)c1 [MF-DH-507, 3-(5-(4,4-difluoropiperidine-1-carbonyl)-1H-pyrrolo[2,3-b]pyridin-1-yl)benzoic acid] | < 100 | – | 97
O=C(c1cnc2c(ccn2-c2ccc(-c3nn[nH]n3)cc2)c1)N1CCC(F)(F)CC1 [MF-DH-514, (1-(4-(2H-tetrazol-5-yl)phenyl)-1H-pyrrolo[2,3-b]pyridin-5-yl)(4,4-difluoropiperidin-1-yl)methanone] | < 100 | – | 110
O=C(c1cnc2c(ccn2-c2cccc(-c3nn[nH]n3)c2)c1)N1CCC(F)(F)CC1 [MF-DH-515, (1-(3-(2H-tetrazol-5-yl)phenyl)-1H-pyrrolo[2,3-b]pyridin-5-yl)(4,4-difluoropiperidin-1-yl)methanone] | < 100 | – | 103
O=C(c1cnc2c(ccn2-c2cncc(-c3nc[nH]n3)c2)c1)N1CCC(F)(F)CC1 [MF-DH-516, (1-(5-(1H-1,2,4-triazol-3-yl)pyridin-3-yl)-1H-pyrrolo[2,3-b]pyridin-5-yl)(4,4-difluoropiperidin-1-yl)methanone] | < 100 | – | 88
O=C(c1cnc2c(ccn2-c2cncc(-c3n[nH]c(C4CC4)n3)c2)c1)N1CCC(F)(F)CC1 [MF-DH-517, (1-(5-(5-cyclopropyl-1H-1,2,4-triazol-3-yl)pyridin-3-yl)-1H-pyrrolo[2,3-b]pyridin-5-yl)(4,4-difluoropiperidin-1-yl)methanone] | < 100 | – | 47
O=C(c1cnc2c(ccn2-c2ccc(-c3n[nH]c(C4CC4)n3)nc2)c1)N1CCC(F)(F)CC1 [MF-DH-518, (1-(6-(5-cyclopropyl-1H-1,2,4-triazol-3-yl)pyridin-3-yl)-1H-pyrrolo[2,3-b]pyridin-5-yl)(4,4-difluoropiperidin-1-yl)methanone] | < 100 | – | 92
O=C(c1cnc2c(ccn2-c2ccc(-c3nnc(C(F)(F)F)[nH]3)nc2)c1)N1CCC(F)(F)CC1 [MF-DH-519, (4,4-difluoropiperidin-1-yl)(1-(6-(5-(trifluoromethyl)-4H-1,2,4-triazol-3-yl)pyridin-3-yl)-1H-pyrrolo[2,3-b]pyridin-5-yl)methanone] | < 100 | – | 89
CC(C)(C)c1ccc(NC(=O)c2cncc(-n3ccc4cc(C(=O)N5CCC(F)(F)CC5)cnc43)c2)cn1 [MF-DH-520, N-(6-(tert-butyl)pyridin-3-yl)-5-(5-(4,4-difluoropiperidine-1-carbonyl)-1H-pyrrolo[2,3-b]pyridin-1-yl)nicotinamide] | < 100 | – | 38
CC(C)(O)CNC(=O)c1cc(Cl)cc(-n2ccc3cc(C(=O)N4CCC(F)(F)CC4)cnc32)c1 [MF-DH-521] | < 100 | – | 84
CC(C)(O)CCc1cc2cc(C(=O)N3CCC(F)(F)CC3)cnc2n1-c1ccc(C(=O)O)cc1 [MF-DH-538, 4-(5-(4,4-difluoropiperidine-1-carbonyl)-2-(3-hydroxy-3-methylbutyl)-1H-pyrrolo[2,3-b]pyridin-1-yl)benzoic acid] | < 100 | – | 91
Cc1nc(-c2ccc(-n3c(CCC(C)(C)O)cc4cc(C(=O)N5CCC(F)(F)CC5)cnc43)cc2)no1 [MF-DH-542, (4,4-difluoropiperidin-1-yl)(2-(3-hydroxy-3-methylbutyl)-1-(4-(5-methyl-1,2,4-oxadiazol-3-yl)phenyl)-1H-pyrrolo[2,3-b]pyridin-5-yl)methanone] | < 100 | – | 68

— patent US11345702B1 (Myoforte Therapeutics, Inc., priority 2020, dated 2022)
